The values below come from patent publication EP4617271A1, “PROTEOLYTIC CHIMERAS FOR THE TREATMENT OF A CANCER RELATED TO CERT” (Consejo Superior De Investigaciones Científicas - CSIC, priority 2024, dated 2025).

One assay deals with T1, CERT (Homo sapiens, UniProt Q9Y5P4).
T1 construct: endogenous in cells; host or cells: MDA-MB-231, MDA-MB-453 (WT and lapatinib-resistant), BT-474 (WT and lapatinib-resistant)
T1 sequence (Q9Y5P4 1-624): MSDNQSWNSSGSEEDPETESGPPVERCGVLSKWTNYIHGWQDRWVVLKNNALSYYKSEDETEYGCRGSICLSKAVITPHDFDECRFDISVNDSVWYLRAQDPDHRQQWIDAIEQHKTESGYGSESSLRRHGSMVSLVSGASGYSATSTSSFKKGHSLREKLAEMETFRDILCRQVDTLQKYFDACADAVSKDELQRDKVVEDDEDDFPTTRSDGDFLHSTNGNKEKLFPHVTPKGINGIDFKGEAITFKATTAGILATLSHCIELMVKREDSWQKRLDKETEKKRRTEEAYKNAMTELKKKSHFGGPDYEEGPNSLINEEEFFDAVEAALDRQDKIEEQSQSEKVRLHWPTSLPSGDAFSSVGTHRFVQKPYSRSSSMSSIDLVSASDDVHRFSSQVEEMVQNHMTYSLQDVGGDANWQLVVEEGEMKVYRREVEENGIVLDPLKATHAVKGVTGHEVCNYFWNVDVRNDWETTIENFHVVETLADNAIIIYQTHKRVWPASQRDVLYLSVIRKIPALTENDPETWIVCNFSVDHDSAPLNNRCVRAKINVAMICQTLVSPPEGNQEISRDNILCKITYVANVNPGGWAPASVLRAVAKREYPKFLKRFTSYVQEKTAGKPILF
The assay can be described thus: Degradation of CERT in cultured human breast cancer cells (SDS-PAGE and immunoblot). Particulars: for degradation of CERT / levels of CERT in cells: 24 h; for degradation of CERT: immunoblot vs DMSO. Type of assay: cell-based. As to the method:
(§1) MDA-MB-231 cells were grown in DMEM media (Sigma) supplemented with 10% fetal bovine serum (FBS) (Sigma), 2 mM L-glutamine (Thermo Fisher) and 100 U/mL penicillin/ 100 ug/mL streptomycin (Thermo Fisher). MDA-MB-453 cells were grown in DMEM/F12 media (Gibco) supplemented with 10% fetal bovine serum (FBS) (Sigma), 2 mM L-glutamine (Thermo Fisher), 2.5 ug/mL amphotericin B and 100 U/mL penicillin/ 100 ug/mL streptomycin (Thermo Fisher). BT-474 cells were grown in DMEM/F12 media (Gibco) supplemented with 10% fetal bovine serum (FBS) (Sigma), 2 mM L-glutamine (Thermo Fisher), 10 ug/mL insulin, 2.5 ug/mL amphotericin B and 100 U/mL penicillin/ 100 ug/mL streptomycin (Thermo Fisher).
Then, medium was removed and cells were washed with PBS, trypsinized and the pellets were disrupted by probe sonication in a 0.25 M solution of Saccharose. An aliquot was used for protein quantification and the same amount of protein per treatment was treated with laemli buffer (95 °C/5 min). The protein extracts were analyzed by SDS-PAGE electrophoresis followed by immunoblot using the following antibodies: CERT1, Abcam Ab72536; USP14, Cell signaling CS-11931; Actin, Abcam Ab5694.
Chimeras were tested in different types of breast cancer cell lines: • MDA-MB-231, lacking the estrogen receptor (ER), progesterone receptor (PR) and human epidermal growth factor receptor-2 (HER2).
Background: A western blot detects proteins with antibodies after separation by electrophoresis.

A further assay has as its system MDA-MB-453/WT cells. The assay can be described thus: Cell viability (MTT), sensitization to lapatinib, MDA-MB-453/WT. Type of assay: cell-based, human. To be noted: 24 h; for sensitization to Lapatinib treatments: Protac 10 µM, lapatinib 3-50 µM, shift of dose response curve vs vehicle; for change in viability: lapatinib 10 µM in the presence of Protac 10 µM; for CC50 vehicle /CC50 Protac ratio: lapatinib CC50 without vs with Protac 10 µM. As to the method:
as §1
(§2) For cell proliferation assays, cells were plated at a density of 10,000 cells/well in a 96-well plate. […] MTT reagent was added to cell culture media. After 3 h incubation, culture medium was replaced by DMSO. MTT formazan crystals were solubilized in DMSO using a plate agitator for 30 min prior to reading absorbance at 570 nm with a SYNERGY H1 microplate reader (BioTek

Another assay relates to MDA-MB-453/Lap cells. The assay can be described thus: Cell viability (MTT), sensitization to lapatinib, MDA-MB-453/Lap. It is filed as cell-based, human. Particulars: 24 h; for sensitization to Lapatinib treatments: Protac 10 µM, lapatinib 3-50 µM, shift of dose response curve vs vehicle; for change in viability: lapatinib 10 µM in the presence of Protac 10 µM; for CC50 vehicle /CC50 Protac ratio: lapatinib CC50 without vs with Protac 10 µM. As to the method: as §1, §2

A further assay deals with BT-474/WT cells. The assay can be described thus: Cell viability (MTT), sensitization to lapatinib, BT-474/WT. Type of assay: cell-based, human. Particulars: 24 h; for sensitization to Lapatinib treatments: Protac 20 µM, lapatinib 0.63-30 µM; for CC50 vehicle /CC50 Protac ratio: lapatinib CC50 without vs with Protac 20 µM. As to the method:
as §1, §2

Another assay has as its system BT-474/Lap cells. The assay can be described thus: Cell viability (MTT), sensitization to lapatinib, BT-474/Lap. Type of assay: cell-based, human. Particulars: 24 h; for sensitization to Lapatinib treatments: Protac 20 µM, lapatinib 0.63-30 µM, shift of dose response curve vs vehicle; for CC50 vehicle /CC50 Protac ratio: lapatinib CC50 without vs with Protac 20 µM. As to the method: as §1, §2

Setting [1] is: BT-474 (WT) cells, 10 µM, 20 µM per Figure 1 legend.
The mark [2] stands for this setting: BT-474/Lap (lapatinib resistant) cells, 1, 5, 10, 20, 30 and 40 µM, immunoblot vs DMSO (Figure 6).
Setting [3] is: MDA-MB-231 cells, 10 µM, time course 2, 4, 6, 8, 16 and 24 h.
Where [4] appears, read: MDA-MB-453/Lap (lapatinib resistant) cells, 1, 5, 10, 20, 30 and 40 µM, immunoblot vs DMSO (Figure 4).

For the compound `Cc1cc(C(=O)N2CCC(COC(=O)NCCOCCOCCOCCn3cc(CCCCCCCCC(=O)N[C@@H](CO)C[C@H](O)c4ccccc4)nn3)CC2)c(C)n1-c1ccc(F)cc1` [RBM3-368], the “degradation of CERT” value at CERT (setting [1]) is reported as “induced the degradation of CERT”; on CERT (MDA-MB-231 cells, 10 µM) it was “induced the degradation of CERT”; on CERT (MDA-MB-453 (WT) cells, 10 µM) it was “induced the degradation of CERT”. Also, the “levels of CERT in cells” value on CERT (setting [2]) and at CERT (setting [4]) was “treatments have reduced the levels of CERT in cells” in each case. Besides, the “time of CERT degradation effect” value at CERT (setting [3]) is 16 to 24 h. For the same compound, the “time of maximum degradation” value at CERT (setting [3]) was 24 h.
As to `Cc1cc(C(=O)N2CCC(COC(=O)NCCOCCOCCn3cc(CCCCCCCCC(=O)N[C@@H](CO)C[C@H](O)c4ccccc4)nn3)CC2)c(C)n1-c1ccc(F)cc1` [RBM3-386, (1-(1-(4-Fluorophenyl)-2,5-dimethyl-1H-pyrrole-3-carbonyl)piperidin-4-yl)methyl (2-(2-(2-(4-(9-(((2R,4S)-1,4-dihydroxy-4-phenylbutan-2-yl)amino)-9-oxononyl)-1H-1,2,3-triazol-1-yl)ethoxy)ethoxy)ethyl) carbamate], the “degradation of CERT” value on CERT (setting [1]) is given as “induced the degradation of CERT”; on CERT (MDA-MB-231 cells, 10 µM), “induced the degradation of CERT”; on CERT (MDA-MB-453 (WT) cells, 10 µM), “induced the degradation of CERT”. The “levels of CERT in cells” value on CERT (setting [2]) and on CERT (setting [4]) was “treatments have reduced the levels of CERT in cells” each time.
Take `Cc1cc(C(=O)N2CCC(Cn3cc(CCCCCCCCC(=O)N[C@@H](CO)C[C@H](O)c4ccccc4)nn3)CC2)c(C)n1-c1ccc(F)cc1` [RBM3-395, N-((2R,4S)-1,4-Dihydroxy-4-phenylbutan-2-yl)-9-(1-((1-(1-(4-fluorophenyl)-2,5-dimethyl-1H-pyrrole-3-carbonyl)piperidin-4-yl)methyl)-1H-1,2,3-triazol-4-yl)nonanamide]: the “degradation of CERT” value is “induced the degradation of CERT” at CERT (setting [1]); “induced the degradation of CERT” on CERT (MDA-MB-231 cells, 10 µM); “induced the degradation of CERT” on CERT (MDA-MB-453 (WT) cells, 10 µM). For the same compound, the “levels of CERT in cells” value at CERT (setting [2]) and at CERT (setting [4]) was “treatments have reduced the levels of CERT in cells” in each case. The “sensitization to Lapatinib treatments” value with MDA-MB-453/WT cells is “Sensitization was also observed, yet mildly”; in the assay with MDA-MB-453/Lap cells it was “potent sensitization”; in the assay on BT-474/WT cells, “sensitized cells to lapatinib treatments”; with BT-474/Lap cells, “potent sensitization”. Also, the change in viability in the assay on MDA-MB-453/WT cells and in the assay with MDA-MB-453/Lap cells was -38% in each case. In addition, the “CC50 vehicle /CC50 Protac ratio” value in the assay on MDA-MB-453/WT cells came to 2.27; in the assay with MDA-MB-453/Lap cells, 2.05; with BT-474/WT cells it was 6.22; in the assay on BT-474/Lap cells it was 5.23.
Consider `Cc1cc(C(=O)N2CCC(COC(=O)NCCOCCn3cc(CCCCCCCCC(=O)N[C@@H](CO)C[C@H](O)c4ccccc4)nn3)CC2)c(C)n1-c1ccc(F)cc1` [RBM3-413, (1-(1-(4-Fluorophenyl)-2,5-dimethyl-1H-pyrrole-3-carbonyl)piperidin-4-yl)methyl (2-(2-(4-(9-(((2R,4S)-1,4-dihydroxy-4-phenylbutan-2-yl)amino)-9-oxononyl)-1H-1,2,3-triazol-1-yl)ethoxy)ethyl)carbamate], for which the “degradation of CERT” value at CERT (setting [1]) is recorded as “induced the degradation of CERT”; on CERT (MDA-MB-231 cells, 10 µM), “induced the degradation of CERT”; on CERT (MDA-MB-453 (WT) cells, 10 µM) it was “induced the degradation of CERT”. Besides, the “levels of CERT in cells” value at CERT (setting [2]) and at CERT (setting [4]) was “treatments have reduced the levels of CERT in cells” throughout. Moreover, the “sensitization to Lapatinib treatments” value is recorded as “Sensitization was also observed, yet mildly” with MDA-MB-453/WT cells; “potent sensitization” with MDA-MB-453/Lap cells; “sensitized cells to lapatinib treatments” in the assay on BT-474/WT cells; “potent sensitization” in the assay on BT-474/Lap cells. The change in viability in the assay with MDA-MB-453/WT cells and in the assay on MDA-MB-453/Lap cells was -38% throughout. The “CC50 vehicle /CC50 Protac ratio” value in the assay with MDA-MB-453/WT cells is reported as 1.98; with MDA-MB-453/Lap cells, 2.33; with BT-474/WT cells, 3.84; in the assay on BT-474/Lap cells, 5.56.
`Cc1cc(C(=O)N2CCC(COC(=O)NCCOCCOCCOCCOCCOCCn3cc(CCCCCCCCC(=O)N[C@@H](CO)C[C@H](O)c4ccccc4)nn3)CC2)c(C)n1-c1ccc(F)cc1` [RBM3-419, (1-(1-(4-Fluorophenyl)-2,5-dimethyl-1H-pyrrole-3-carbonyl)piperidin-4-yl)methyl (17-(4-(9-(((2R,4S)-1,4-dihydroxy-4-phenylbutan-2-yl)amino)-9-oxononyl)-1H-1,2,3-triazol-1-yl)-3,6,9,12,15-pentaoxaheptadecyl)carbamate]: the “degradation of CERT” value at CERT (setting [1]) was “induced the degradation of CERT”; on CERT (MDA-MB-231 cells, 10 µM) it was “induced the degradation of CERT”; at CERT (MDA-MB-453 (WT) cells, 10 µM) it was “induced the degradation of CERT”. Moreover, the “levels of CERT in cells” value on CERT (setting [2]) and at CERT (setting [4]) was “treatments have reduced the levels of CERT in cells” each time.
